Measurements from patent US5998596A, “Inhibition of protein kinase activity by aptameric action of oligonucleotides” (The United States of America as represented by the …).

How the values were obtained:
[1] = test system: p210^bcr-abl; assay: Inhibition of p210bcr-abl immunoprecipitation by BCR directed antibody clone 7C6; format: binding, human; settings: 10 μM ODN added to K562 cell lysate, antibody clone 7C6, Western for phosphotyrosine
Experimental: FIG. 9C. Inhibition of p210^bcr-abl immunoprecipitation by T-21. […] T-21 was added to the lysate from 1×10^6 K562 cells (lane 2) and p210^bcr-abl immunoprecipitated with the BCR directed antibody, clone 7C6; no ODN was added to the lysate immunoprecipitated in lane 1. After extensive washing, the immunoprecipitates were separated on a 7% SDS polyacrylamide gel, transferred to nitrocellulose, and probed with an anti-phosphotyrosine antibody. Data are representative of at least two separate experiments.
In experiments designed to test the specificity of BCR-AS, an ODN composed solely of thymidylic acid residues (T-21) i.e., 5' […] 3' (SEQ ID NO.: 12) was capable of interfering with p210^bcr-abl immunoprecipitation. […] From the data in FIG. 9A, one can calculate an IC50 of less than 1 μM. […] This apparent discrepancy appears to be due to the ability of T-21 to inhibit precipitation of p210^bcr-abl by the BCR-directed antibody, clone 7C6. […] Inhibition of p210^bcr-abl immunoprecipitation was not seen with the other ODNs used in this study (data now shown).

[2] = test system: p210^bcr-abl kinase in K562 cells; assay: Immunoprecipitation kinase assay of p210bcr-abl from ODN treated K562 cells; format: cell-based, human; settings: K562 cells treated with T-21 overnight, washed, calculated from FIG. 9A, read-out: IC50 of apparent reduction of p210^bcr-abl kinase activity
Experimental: (§1) Immunoprecipitation kinase assays of p210^bcr-abl p145^abl were performed as described, with modifications (15). Briefly, for p210^bcr-abl, 1 μg of anti-bcr antibody (clone 7C6, Oncogene Science, Uniondale, N.Y.) was added to lysates prepared from 0.5-1×10^6 K562 cells. For p145^abl, 1 μg of anti-c-abl antibody (clone 24-21), which binds to the C-terminal domain of p145^abl, was added to lysates prepared from 5×10^6 PC3M cells. After incubating 1 hour at 4° C., complexes were precipitated by incubating with protein A-Sepharose coated with rabbit anti-mouse immunoglobulin (Cappel Research Products, Durham, N.C.) for 30 minutes. The complexes were then washed as follows: ABL lysis buffer×2, PBS×1, and ABL assay buffer×1 (24 mM imidazole, pH 7.2, 1 mg/ml bovine serum albumin, and 10 mM MnCl). For p145^abl assays ABL assay buffer contained 20 mM MnCl. To access the activity of p210^bcr-abl on substrate phosphorylation, acid inactivated enolase (Sigma Chemical Co., St. Louis, Mo.) was added as described (15).
(§2) ODNs were added to kinase reaction buffers not more than 5 minutes prior to the addition of ATP. Reactions were initiated by the addition of [γ^-32 P] ATP (3000 Ci/mmole; Amersham Corp., Arlington Heights, Ill.) and quenched by the addition of 5× gel loading buffer and heating to 95° C. Kinase reactions were run for 1-10 minutes at room temperature, except for EGFR, p145^abl, and MAP kinase, which were run at 30° C. The products were then electrophoresed on SDS-polyacrylamide gels: 7% for p210^bcr-abl, EGFR, and PDGFR, 8% for p145^abl, 10% for src, lck, and cdc-2 kinase, and 12% for MAP kinase. Gels were dried and reaction products were visualized by direct autoradiography at -70° C. with Kodak X-OMAT AR film. To determine the inhibitory concentration 50, i.e., the concentration required to inhibit enzyme activity by 50% (IC50) and Ki values, gel slices containing the band of interest were excised and analyzed by Cerenkov counting.
The effects of ODN1 on a cellular system were assessed. […] After 3 days, cells were washed and p210^bcr-abl kinase activity was measured. […] Neither cellular p210^bcr-abl protein content nor cell growth was affected by ODN treatment (data not shown).

[3] = test system: p210^bcr-abl kinase; assay: Immunoprecipitation kinase assay of p210bcr-abl (autophosphorylation), ODN added to kinase reaction; format: biochemical, human; settings: ODN at 1 μM added to the immunoprecipitated enzyme
Experimental: The p210^bcr-abl kinase, src kinase and cdc-2 kinase were immunoprecipitated from K562 cells. The p145^abl kinase was immunoprecipitated from PC3M cells, PDGF receptor kinase from 3T3 cells, and EGF receptor kinase from A431 cells. MAP kinase was utilized as a pure protein and lck kinase was immunoprecipitated from peripheral blood lymphocytes of a normal volunteer.
(§3) Cells were washed in phosphate buffered saline (PBS) and 0.5-5×10^6 cells were solubilized in 1 ml of the specified cell lysis buffers. Unless otherwise stated, all cell lysis buffers contained the following protease inhibitors: 20 μg/ml leupeptin, 1 μg/ml aprotinin, and 1 mM phenylmethylsulfonylfluroide. For p210^bcr-abl and […] immunoprecipitation, cells were lysed with ABL lysis buffer (25 mM imidazole, pH 7.2, 0.5% NP40, 50 mM NaCl, 1 mM Na3 VO4) and lysates were clarified at 14,000 g. 4° C. for 30 minutes. Cell lysis for all other proteins was performed according to the references describing the various immunoprecipitation kinase assays.
as §1, §2

[4] = biological target: p145 ABL tyrosine kinase (c-Abl) (UniProt P00519 P00519:1-1130); assay: inhibition; 20 mM Mn, 30 C; settings: tags: immunoprecipitated from PC3M cells with anti-c-abl clone 24-21
Chain of p145 ABL tyrosine kinase (c-Abl) (P00519 whole entry, one chain of several): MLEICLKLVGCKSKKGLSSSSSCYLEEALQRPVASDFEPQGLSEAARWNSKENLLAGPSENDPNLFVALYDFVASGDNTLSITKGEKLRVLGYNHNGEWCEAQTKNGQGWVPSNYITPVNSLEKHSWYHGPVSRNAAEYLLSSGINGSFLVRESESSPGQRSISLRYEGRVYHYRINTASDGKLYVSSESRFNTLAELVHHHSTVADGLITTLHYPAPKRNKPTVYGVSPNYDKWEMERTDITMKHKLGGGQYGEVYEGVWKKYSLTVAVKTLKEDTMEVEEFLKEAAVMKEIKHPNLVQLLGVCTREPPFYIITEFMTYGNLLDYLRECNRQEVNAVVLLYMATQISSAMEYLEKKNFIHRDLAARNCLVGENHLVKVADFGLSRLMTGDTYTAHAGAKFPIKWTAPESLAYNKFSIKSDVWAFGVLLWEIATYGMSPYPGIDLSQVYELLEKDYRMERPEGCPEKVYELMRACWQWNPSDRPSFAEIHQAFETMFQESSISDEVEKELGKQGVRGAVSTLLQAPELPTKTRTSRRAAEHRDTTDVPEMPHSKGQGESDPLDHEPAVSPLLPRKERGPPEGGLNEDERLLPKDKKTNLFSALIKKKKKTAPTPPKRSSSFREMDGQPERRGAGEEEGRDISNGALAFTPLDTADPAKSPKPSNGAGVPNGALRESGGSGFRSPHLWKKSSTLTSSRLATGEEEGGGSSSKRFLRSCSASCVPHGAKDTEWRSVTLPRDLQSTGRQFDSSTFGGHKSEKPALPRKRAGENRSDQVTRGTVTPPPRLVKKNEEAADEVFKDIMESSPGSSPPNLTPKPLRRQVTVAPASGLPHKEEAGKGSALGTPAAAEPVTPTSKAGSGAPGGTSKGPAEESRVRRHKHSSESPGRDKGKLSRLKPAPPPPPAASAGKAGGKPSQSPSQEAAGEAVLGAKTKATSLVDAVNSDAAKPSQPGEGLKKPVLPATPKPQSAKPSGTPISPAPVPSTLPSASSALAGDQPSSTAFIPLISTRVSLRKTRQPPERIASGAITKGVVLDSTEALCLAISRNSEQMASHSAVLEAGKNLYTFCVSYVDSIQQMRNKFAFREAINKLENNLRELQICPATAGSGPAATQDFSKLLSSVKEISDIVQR
Experimental: as §3, with “0.5–5×10^6” for “0.5-5×10^6”, “µg/ml” for “μg/ml”, “Na_3VO_4)” for “Na3 VO4)”
Immunoprecipitation kinase assays of p210^bcr-abl p145^abl were performed as described, with modifications (15). Briefly, for p210^bcr-abl, 1 µg of anti-bcr antibody (clone 7C6, Oncogene Science, Uniondale, N.Y.) was added to lysates prepared from 0.5–1×10^6 K562 cells. For p145^abl, 1 µg of anti-c-abl antibody (clone 24-21), which binds to the C-terminal domain of p145^abl, was added to lysates prepared from 5×10^6 PC3M cells. After incubating 1 hour at 4° C., complexes were precipitated by incubating with protein A-Sepharose coated with rabbit anti-mouse immunoglobulin (Cappel Research Products, Durham, N.C.) for 30 minutes. […]

Row | Molecule | inhibition of p210^bcr-abl immunoprecipitation [1] | IC50 [2] | inhibition of p210^bcr-abl kinase activity in vitro (in words) [3] | IC50 [4]
1 | 5' TTTTTTTTTTTTTTTTTTTTT 3' (chemistry not given here) [T-21, a 21mer composed solely of thymidylic acid residues] | nearly total inhibition | < 1000 nM | only moderate inhibition | 
2 | GTCCACCATGGCGCGGCCGGC (ssDNA, PS, two linkages at each of 5' and 3' ends, rest phosphodiester) [ODN1 (BCR-AS), phosphorothioate capped] |  |  |  | 620 nM
